The target of one data set is T1, Recombinant human Src (Homo sapiens, UniProt P12931).
T1 construct: purchased Upstate (Lake Placid, N.Y.)
In words: Enzymatic assay on isolated Src. It counts as biochemical. To be noted: mean of at least two experiments; read-out: Enzymatic Data (Ki, μM) c-Src.

The test system of data set [1] is SH-SY5Y cells. In words: Spheroid growth assay (SH-SY5Y). As to conditions: Homo sapiens; SH-SY5Y Neuroblastoma cell spheroid; read-out: Cellular Data (IC50, μM) SH-SY5Y. It counts as cell-based.
Experimental: The in vitro antitumoral action of inhibitors was evaluated by neuroblastoma spheroid assay. The SH-SY5Y cell line was utilized as cell model of human neuroblastoma. Cells were purchased from American Type Culture Collection (ATCC, Manassas, Va., USA) and were cultured in DMEM medium supplemented with 10% Fetal Bovine Serum. IBIDI angiogenesis micro-slides (IBIDI GmbH) coated with growth factor reduced Matrigel (BD, Bioscience) and allowed to polymerize for 30 minutes. SH-SY5Y cells were seeded in a 96-multiwell plate in the presence or not (CTR) of inhibitors. […] The size of cellular spheres, in terms of area and diameter, was determined using an Image Pro-plus v 4.5 analysis system considering 5 random fields/treatment (400× magnification).
Antitumoral effect was also tested by spheroid formation assay.
Data set [2] concerns SH-SY5Y cells. As to conditions: previously reported (ref 20); read-out: antiproliferative effect on SH-SY5Y NB cells (IC50); cited from earlier work.
Another data set in a line: PAMPA, BBB permeability. As to conditions: for PAMPA BBB (MR %): Membrane Retention; for Papp at 5 h, 0.5 mM: PAMPA, pH 7.4.
A short description of data set [3]: Microsomal stability assay. As to conditions: percentage of unmodified drug, Table 8.
Data set [4] is described as follows: PAMPA, intestinal (GI) permeability. To be noted: for PAMPA GI (MR %): Membrane Retention.
In the next data set the test system is K562 cells. In words: Antiproliferative activity on human cell line K562. Format: cell-based. As to conditions: for IC50: Homo sapiens, K562, read-out: Cellular Data (IC50, μM) K562.
Data set [5] has as its system Fyn mediated phosphorylation of residue Tyr18 in Tau protein. In words: Aβ42 induced Tyr18-Tau phosphorylation in differentiated SH-SY5Y cells. It counts as cell-based, human. As to conditions: for duration of inhibitory activity on Tau phosphorylation: after compound administration; for Aβ42 induced Tyr18-Tau phosphorylation: dose dependent. As for the experimental part:
The neuroblastoma cell line SH-SY5Y was cultured in media obtained by mixing equal volume of MEM and HAM F12 supplemented with 15% fetal calf serum (FCS, Australian origin, Lonza), 100 U/ml penicillin, 100 μg/ml streptomycin and 2 mM L-glutamine (all from Euroclone) at 37° C. in humidified air with 5% CO2. The medium was changed every 48 hours. Cells were split at about 80% confluence and never cultured beyond passage 20. Cell differentiation was achieved by pre-treating for 5 days the SH-SY5Y cells with media containing 1% FCS and 10 μM retinoic acid (RA, Sigma Aldrich). Subsequently cells were treated for other 7 days in media with no serum and supplemented with 50 ng/ml of human recombinant brain derived neurotrophic factor (BDNF, Peprotech), 10 ng/ml human recombinant beta nerve growth factor (NGF, Peprotech), 10 ng/ml neuregulin 1 beta 2 protein (NRG, Abcam) and 9.35 μg/ml vitamin D3 (Sigma Aldrich). To confirm full neuronal differentiation, the expression of mature isoforms of Tau were checked. Differentiated cells were treated for 1.5, 3 and 6 hours with media containing 10 μM Aβ42 oligomer/protofibrils and N2 supplement (Life Technologies), in the presence or in the absence of Fyn inhibitors dissolved in DMSO. As control, cells were treated with media containing equivalent amounts of DMSO.
Briefly, Aβ42 peptides (Sigma) were dissolved in 1,1,1,3,3,3-hexafluoro-2-propanol and lyophilized to completely remove the solvent. Lyophilized Aβ42 peptides were reconstituted in DMSO to a working concentration of 10 mM, diluted 1:100 using HAM F12 (without phenol red and glutammine), vortexed for 15 sec and incubated 24 hours at 4° C. A042 oligomer/protofibrils were visualized by SDS-PAGE and silver staining.

In another data set the test system is human normal fibroblasts. In words: Toxicity in human normal fibroblasts. Format: cell-based.
Another data set deals with recombinant Fyn (Homo sapiens, UniProt P06241). In words: Enzymatic assay on isolated Fyn kinase.
Chain of recombinant Fyn (P06241 whole entry, looked up): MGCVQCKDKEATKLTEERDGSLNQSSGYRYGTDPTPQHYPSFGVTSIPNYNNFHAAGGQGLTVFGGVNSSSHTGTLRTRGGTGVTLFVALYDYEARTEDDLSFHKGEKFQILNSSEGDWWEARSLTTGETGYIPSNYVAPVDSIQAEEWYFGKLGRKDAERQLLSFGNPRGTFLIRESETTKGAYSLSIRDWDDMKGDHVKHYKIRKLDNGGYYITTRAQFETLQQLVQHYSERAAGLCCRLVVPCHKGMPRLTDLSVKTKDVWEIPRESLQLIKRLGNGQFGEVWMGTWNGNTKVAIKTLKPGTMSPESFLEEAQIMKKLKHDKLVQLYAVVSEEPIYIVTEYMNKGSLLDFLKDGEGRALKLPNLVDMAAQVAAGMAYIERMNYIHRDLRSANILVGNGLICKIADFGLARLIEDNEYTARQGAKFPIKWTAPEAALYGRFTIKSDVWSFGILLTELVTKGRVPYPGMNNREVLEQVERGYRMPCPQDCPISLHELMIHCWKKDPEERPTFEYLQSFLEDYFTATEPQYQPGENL
A short description of data set [6]: Stability tests in phosphate buffer and methanol. As to conditions: 20° C., 48 h incubation. Format: physicochemical.
Data set [7] is described as follows: Enzymatic stability in human plasma. Format: in vitro ADME. To be noted: human, pooled human plasma diluted with phosphate buffer, pH 7.4; 37° C.; read-out: Stability Human Plasma t1/2 (converted).
Data set [8] is described as follows: In vivo pharmacokinetics / biodistribution. Also noted: species or system mice. As to conditions: 50 mg/Kg i.p.; for Quantity of Compound, BLOOD / Quantity of Compound, BRAIN: administered compound itself, BALB/C mice.
Experimental: The animal protocols used were reviewed and approved by the Animal Care and Ethics Committee of the Universita{grave over ( )} degli Studi di Siena, Italy. Male BALB/C mice (weight 20-30 g) were obtained from Charles River (Milan, Italy). […] The blood, previously heparinized, was centrifuged at 4000 rpm for 20 minutes to separate the plasma fraction and then 500 μl were collected in a test tube. […] Samples were centrifuged at 4000 rpm for 20 minutes, the supernatant was recovered, dried under vacuum and analyzed by LC-UV-MS. Brain was homogenized using a glass/glass Potter-Elvehjem homogenizer in presence of Tris-HCl buffer (50 mM) and compounds were recovered using 7 mL of ACN then treated as previously described for blood samples.
The subject of a further data set is U87 cells. In words: Orthotopic mouse model of GBM. Format: in vivo, mice. As to conditions: 50 mg/kg three times per week for 4 weeks.
A further data set can be described thus: Water solubility assay. As to conditions: water, 20 °C, thermodynamic from solid.

≈ marks a conversion by molar mass, not a printed value. Where two headings read alike, the source gives them in different places.

T1 sequence (P12931 whole entry): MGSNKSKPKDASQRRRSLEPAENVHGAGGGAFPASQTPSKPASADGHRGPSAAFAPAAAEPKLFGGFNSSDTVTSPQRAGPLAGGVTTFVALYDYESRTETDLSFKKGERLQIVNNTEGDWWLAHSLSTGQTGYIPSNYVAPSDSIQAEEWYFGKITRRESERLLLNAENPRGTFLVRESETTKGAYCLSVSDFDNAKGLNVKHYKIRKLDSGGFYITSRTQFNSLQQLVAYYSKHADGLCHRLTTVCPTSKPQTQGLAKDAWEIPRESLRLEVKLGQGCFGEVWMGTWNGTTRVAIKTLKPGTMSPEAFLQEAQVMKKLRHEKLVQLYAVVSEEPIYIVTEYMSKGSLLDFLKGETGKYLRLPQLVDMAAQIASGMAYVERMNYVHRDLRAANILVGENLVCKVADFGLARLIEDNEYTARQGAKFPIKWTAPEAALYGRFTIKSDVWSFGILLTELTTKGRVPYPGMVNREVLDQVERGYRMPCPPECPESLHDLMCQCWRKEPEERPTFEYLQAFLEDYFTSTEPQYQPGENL
Experimental for K562 cells: In vitro experiments were carried out using the human Chronic Myelogeneous Leukemia cell line K562. Cells were purchased from American Type Culture Collection (ATCC, Manassas, Va., USA) and were cultured in RPMI medium supplemented with 10% Foetal Bovine Serum. […] Cell number and vitality were evaluated using the automatic cell counter NucleoCounteri (Chemometec, Denmark). Results from the NucleoCounter represented either total or non-viable cell concentration, depending on the sample preparation indicated by manufacturer.
In vitro experiments were carried out using the human Chronic Myelogeneous Leukemia cell line K562. Cells were purchased from American Type Culture Collection (ATCC, Manassas, Va., USA) and were cultured in RPMI medium supplemented with 10% Foetal Bovine Serum. […] Cell number and vitality were evaluated using the automatic cell counter NucleoCounter® (Chemometec, Denmark). Results from the NucleoCounter represented either total or non-viable cell concentration, depending on the sample preparation indicated by manufacturer.
Experimental for PAMPA, BBB permeability: Donor solution (0.5 mM) was prepared by diluting 1 mM dimethylsulfoxide (DMSO) compound stock solution using phosphate buffer (pH 7.4, 0.025 M). […] Donor solution (150 μL) was added to each well of the filter plate. To each well of the acceptor plate were added 300 μL of solution (50% DMSO in phosphate buffer). All compounds were tested in three different plates on different days. The sandwich was incubated for 5 h at room temperature under gentle shaking. After the incubation time, the plates were separated, and samples were taken from both receiver and donor sides and analyzed using LC with UV detection at 280 nm.
Permeability (Papp) for PAMPA was calculated according to the following equation, obtained from Wohnsland and Faller^27 and Sugano et al.^28 equation with some modification in order to obtain permeability values in cm s^−1,
Drug concentration is estimated by using the peak area integration. Membrane retentions (%) were calculated according to the following equation:
where r is the ratio between drug concentration in the acceptor and equilibrium concentration, D, A, and Eq represented drug concentration in the donor, acceptor and equilibrium solution, respectively.
Donor solution of tested compounds (0.5 mM) was prepared by diluting 1 mM dimethylsulfoxide (DMSO) compound stock solution using phosphate buffer (pH 7.4, 25 mM). […] Donor solution (150 μL) was added to each well of the filter plate. To each well of the acceptor plate were added 300 μL of solution (50% DMSO in phosphate buffer). Compounds was tested in three different plates on different days. The sandwich was incubated for 5 h at room temperature under gentle shaking.
Permeability (Papp) for PAMPA was calculated according to the following equation, obtained from Wohnsland and Faller and Sugano et al.^27, 28.
Drug concentration is estimated by using the peak area integration. Membrane retention (%) was calculated according to the following equation:
Text for Recombinant human Src: Recombinant human Src was purchased from Upstate (Lake Placid, N.Y.).
Experimental for U87 cells: Survival curves (days) of orthotopic mouse model of GBM.
Male CD1 nude mice (Charles River, Milan, Italy) were maintained under the guidelines established by University of L'Aquila, Medical School and Science and Technology School Board Regulations, complying with the Italian government regulations for the use of laboratory animals. Before any invasive manipulation, mice were anesthetized with a mixture of ketamine (25 mg/ml)/xylazine (5 mg/ml). Tumor grafts were obtained by injecting with a Hamilton syringe mounted on a stereotactic instrument, 2*10^3 U87 cells resuspended in 2 microL PBS (David Kopf Instruments, CA, USA). The cells were injected after the exposition of periosteal cranic site and the drimming of a 1 mm diameter hole localized at 4 mm from striatum and with a depth of 4 mm. The wound was treated with antibiotics and was surgically sutured.
Experimental for recombinant Fyn: Kinase assays were performed in presence of 200 μM ATP and 100 μM peptide substrate. All inhibition assays were conducted with 0.01 μg active kinase, 0.33 μmol [^γ32P]ATP, 60 mM HEPES-NaOH pH 7.5, 3 μM Na-orthovanadate, 1.2 mM DTT, 50 μg/ml PEG20.0000, 10 mM magnesium acetate, 0.004% NP40 and 10% DMSO in a final volume of 10 μL. Fyn and inhibitors were preincubated in ice for 5 min; after addition of the substrates the reaction was conducted at 30° C. for 10 min. The reaction was stopped by adding 5 μL of 3% phosphoric acid. Aliquots (10 μL) were then transferred into a P30 Filtermat (PerkinElmer), washed five times with 75 mM phosphoric acid and once with acetone for 5 minute. The filter was dried and transferred to a sealable plastic bag, and scintillation cocktail (4 mL) was added. Spotted reactions were read in a MicroBeta Liquid (Perkinelmer) scintillation counter. The ID50 values were obtained according to the following equation:
Ki values toward recombinant Fyn were calculated using the equation:
according to a competitive mechanism of inhibition toward ATP substrate, where [SATP] is the concentration of ATP. Curve fitting was performed with the program GraphPad Prism version 5.00.

With `Fc1ccccc1CNc1nc(SCCN2CCOCC2)nc2c1cnn2CCc1ccccc1`, the inhibition constant (Ki) on Recombinant human Src amounted to 0.17 µM. Also, in the data set on SH-SY5Y cells [1], the half-maximal inhibitory concentration (IC50) worked out at 63 µM.

Consider `CSc1nc(Nc2cccc(Cl)c2)c2cnn(CCc3ccccc3)c2n1` [Si214, N-(3-chlorophenyl)-6-(methylthio)-1-phenethyl-1H-pyrazolo[3,4-d]pyrimidin-4-amine], for which the IC50 with SH-SY5Y cells [2] is 80 nM. For the same molecule, in the data set “PAMPA, BBB permeability”, the “PAMPA BBB (MR %)” value is recorded as “(55.7) %” and the apparent permeability coefficient (Papp) at 5 h, 0.5 mM was 1.48 ×10⁻⁶ cm/s. Besides, the “Metabolic Stab. %” value in data set [3] was 99.0%. For the same molecule, the “PAMPA GI” value in [4] (Gastrointestinal PAMPA, Table 8) is listed as 0 10^−6 cm · sec^−1. The “PAMPA GI (MR %)” value in [4] was “(78.0) %”.

The molecule `Nc1ncnc2c1c(-c1ccc(Cl)cc1)nn2CC(Cl)c1ccccc1` (stereo not drawn) [Si308, 3-(4-Chlorophenyl)-1-(2-chloro-2-phenylethyl)-1H-pyrazolo[3,4-d]pyrimidin-4-amine] came in with a melting point of 150 to 151 °C. For the same molecule, in the data set on K562 cells, the “IC50 for cell viability K562” value is “submicromolar range” and the half-maximal inhibitory concentration (IC50) amounted to 0.56 ± 0.01 µM. In [5], the “duration of inhibitory activity on Tau phosphorylation” value is “effective up to six hours” and the “Aβ42 induced Tyr18-Tau phosphorylation” value is “significantly affected”. In addition, in the data set on human normal fibroblasts, the “cell toxicity in human normal fibroblasts” value is listed as “did not showed any sign of cell toxicity”. The inhibitory constant (Ki) on recombinant Fyn is 95 nM. Also, the Ki on recombinant Fyn (read-out: Ki Fyn) is 70 nM.

Take `Cc1ccc(-c2nn(CC(Cl)c3ccccc3)c3ncnc(N)c23)cc1` (stereo not drawn) [Si309, 1-(2-Chloro-2-phenylethyl)-3-(4-methylphenyl)-1H-pyrazolo[3,4-d]pyrimidin-4-amine]: in the data set on K562 cells, the “IC50 for cell viability K562” value is “submicromolar range” and the IC50 was determined as 0.3 ± 0.06 µM. In data set [5], the “duration of inhibitory activity on Tau phosphorylation” value is on record as “effective up to six hours” and the “Aβ42 induced Tyr18-Tau phosphorylation” value was “significantly affected”. Besides, the “cell toxicity in human normal fibroblasts” value in the data set on human normal fibroblasts is “did not showed any sign of cell toxicity”.

Consider `CN1CCN(CCOC(=O)N(c2cccc(Br)c2)c2nc(SCCN3CCOCC3)nc3c2cnn3CC(Cl)c2ccccc2)CC1` (stereo not drawn) [proSi306], for which the half-life at 500 μM in [6] (methanol, read-out: Stability MeOH t1/2) is > 2880 min; in data set [6] (phosphate buffer, pH 7.4, read-out: Stability PBS pH 7.4 t1/2), > 2880 min. In addition, the half-life at 100 μM in data set [7] is 209 min. In addition, in data set [8], the “brain concentration with respect to the drug” value is listed as “higher brain concentration”. Besides, the “Quantity of Compound, BLOOD” value in [8] (15′) is on record as 10.7 ± 1.11 nmol of compound/g of tissue; in [8] (30′), 8.9 ± 1.22 nmol of compound/g of tissue; in data set [8] (1 h), 11.4 ± 1.29 nmol of compound/g of tissue; in data set [8] (2 h), 7.2 ± 2.17 nmol of compound/g of tissue; in data set [8] (4 h), 6.5 ± 0.58 nmol of compound/g of tissue; in data set [8] (8 h), 6.2 ± 2.07 nmol of compound/g of tissue. Further, the “Quantity of Compound, BLOOD” value in data set [8] (24 h) is listed as 3.7 ± 0.60 nmol of compound/g of tissue; in data set [8] ([…]), 8.3 ± 2.21 nmol of compound/g of tissue. Besides, the “Quantity of Compound, BRAIN” value in [8] (15′) is recorded as 5.3 ± 1.5 nmol of compound/g of tissue; in data set [8] (30′), 3.4 ± 0.33 nmol of compound/g of tissue; in [8] (1 h) it was 3.4 ± 2.24 nmol of compound/g of tissue; in data set [8] (2 h), 2.8 ± 0.60 nmol of compound/g of tissue; in data set [8] (4 h), 2.9 ± 1.38 nmol of compound/g of tissue; in [8] (8 h), 3.6 ± 2.12 nmol of compound/g of tissue. For the same molecule, the “Quantity of Compound, BRAIN” value in data set [8] (24 h) is reported as 6.6 ± 1.08 nmol of compound/g of tissue; in data set [8] ([…]), 2.4 ± 0.24 nmol of compound/g of tissue. Moreover, the “survival of mice respect to control group” value in the data set on U87 cells is “significant ability in prolonging survival”. In “Water solubility assay”, this molecule yielded a solubility at 24 h of 11.7 µM (≈ 8.74 µg/mL). The molecule also gave a thermodynamic solubility at 24 h in the data set “Water solubility assay” of 8.7 µg/mL (≈ 11.7 µM). The “PAMPA BBB (MR %)” value in the data set “PAMPA, BBB permeability” is “(42.0) %”. In addition, the Papp at 5 h, 0.5 mM in the data set “PAMPA, BBB permeability” stood at 2.91 ×10⁻⁶ cm/s; in data set [4] (PAMPA, pH 7.4) it was 2.13 ×10⁻⁶ cm/s. In data set [4], the “PAMPA GI (MR %)” value is “(45.5) %”.

Source of the values: patent publication US20180186796A1, “COMPOUNDS AND USES THEREOF” (LEAD DISCOVERY SIENA S.R.L., priority 2014, published 2018).
